These results are taken from the Kinase Knowledgebase extract (Sharma et al. 2016).

The structures appear in SMILES notation. pIC50, pKd, pKi: −log10 of the molar value.

Chain of ROCK2 (human) (O75116 whole entry, looked up): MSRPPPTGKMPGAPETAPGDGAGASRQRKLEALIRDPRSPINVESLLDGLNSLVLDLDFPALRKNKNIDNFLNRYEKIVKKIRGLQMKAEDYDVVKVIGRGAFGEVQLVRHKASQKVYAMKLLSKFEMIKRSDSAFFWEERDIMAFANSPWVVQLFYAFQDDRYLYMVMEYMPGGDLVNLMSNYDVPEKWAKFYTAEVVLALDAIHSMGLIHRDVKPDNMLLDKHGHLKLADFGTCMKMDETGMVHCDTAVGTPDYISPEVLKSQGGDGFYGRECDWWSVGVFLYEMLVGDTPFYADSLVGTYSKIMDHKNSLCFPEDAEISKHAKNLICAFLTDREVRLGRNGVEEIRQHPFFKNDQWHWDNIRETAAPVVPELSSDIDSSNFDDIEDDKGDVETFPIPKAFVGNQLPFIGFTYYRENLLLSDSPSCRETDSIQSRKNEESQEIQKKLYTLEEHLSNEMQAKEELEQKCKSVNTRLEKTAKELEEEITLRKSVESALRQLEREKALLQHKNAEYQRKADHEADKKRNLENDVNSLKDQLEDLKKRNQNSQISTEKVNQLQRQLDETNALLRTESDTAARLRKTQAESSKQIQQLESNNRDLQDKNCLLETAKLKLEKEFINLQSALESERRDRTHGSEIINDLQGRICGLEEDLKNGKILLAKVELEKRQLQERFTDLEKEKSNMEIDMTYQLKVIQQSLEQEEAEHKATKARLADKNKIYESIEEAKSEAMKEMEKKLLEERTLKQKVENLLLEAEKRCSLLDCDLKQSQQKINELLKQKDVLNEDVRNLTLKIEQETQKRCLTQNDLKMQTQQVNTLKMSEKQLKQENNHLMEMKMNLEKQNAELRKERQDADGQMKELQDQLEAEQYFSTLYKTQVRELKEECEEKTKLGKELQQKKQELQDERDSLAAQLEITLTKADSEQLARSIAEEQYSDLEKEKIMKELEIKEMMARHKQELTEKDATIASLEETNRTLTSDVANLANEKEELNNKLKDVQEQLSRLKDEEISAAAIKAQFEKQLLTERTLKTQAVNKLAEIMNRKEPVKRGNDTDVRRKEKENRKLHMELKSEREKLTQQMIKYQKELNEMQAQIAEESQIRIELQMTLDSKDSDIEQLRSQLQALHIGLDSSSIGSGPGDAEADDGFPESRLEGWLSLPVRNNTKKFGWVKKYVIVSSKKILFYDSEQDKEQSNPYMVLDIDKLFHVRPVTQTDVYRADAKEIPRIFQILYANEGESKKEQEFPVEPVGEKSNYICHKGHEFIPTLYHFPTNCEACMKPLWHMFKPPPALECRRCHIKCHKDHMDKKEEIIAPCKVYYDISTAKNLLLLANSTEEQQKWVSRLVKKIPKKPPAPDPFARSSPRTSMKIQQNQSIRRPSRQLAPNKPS
Chain of PIK3CA (human) (P42336 whole entry, looked up): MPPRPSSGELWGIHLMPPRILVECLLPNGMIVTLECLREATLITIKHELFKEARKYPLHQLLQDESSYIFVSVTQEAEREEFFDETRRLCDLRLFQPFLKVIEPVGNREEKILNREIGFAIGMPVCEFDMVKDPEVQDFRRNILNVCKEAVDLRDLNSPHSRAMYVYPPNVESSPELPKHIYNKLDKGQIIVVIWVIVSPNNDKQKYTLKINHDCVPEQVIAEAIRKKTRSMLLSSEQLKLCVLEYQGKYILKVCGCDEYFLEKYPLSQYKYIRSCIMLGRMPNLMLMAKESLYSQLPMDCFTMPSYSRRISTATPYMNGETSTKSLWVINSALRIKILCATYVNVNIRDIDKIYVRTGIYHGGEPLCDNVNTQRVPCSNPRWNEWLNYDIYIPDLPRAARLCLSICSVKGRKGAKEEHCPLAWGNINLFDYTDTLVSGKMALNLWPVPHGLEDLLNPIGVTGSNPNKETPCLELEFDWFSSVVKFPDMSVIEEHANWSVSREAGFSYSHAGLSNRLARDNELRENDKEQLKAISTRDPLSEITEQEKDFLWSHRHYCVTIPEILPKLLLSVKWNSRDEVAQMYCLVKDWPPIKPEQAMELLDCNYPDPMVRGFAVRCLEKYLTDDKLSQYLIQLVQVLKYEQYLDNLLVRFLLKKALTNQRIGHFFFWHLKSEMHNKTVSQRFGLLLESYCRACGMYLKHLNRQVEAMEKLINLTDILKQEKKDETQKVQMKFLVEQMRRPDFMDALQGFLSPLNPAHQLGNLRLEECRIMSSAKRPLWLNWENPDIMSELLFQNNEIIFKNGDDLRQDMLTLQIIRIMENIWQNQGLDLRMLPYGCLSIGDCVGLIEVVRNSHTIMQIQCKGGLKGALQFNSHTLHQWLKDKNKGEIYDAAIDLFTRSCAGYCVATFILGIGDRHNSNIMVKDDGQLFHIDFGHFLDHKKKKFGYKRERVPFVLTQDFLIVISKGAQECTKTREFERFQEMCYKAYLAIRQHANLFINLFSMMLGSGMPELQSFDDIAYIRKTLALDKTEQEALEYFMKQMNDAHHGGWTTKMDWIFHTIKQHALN

The target in the first test is PIK3CG (human) (UniProt P48736). Kind of test: Inhibition of PIK3CG Kinase Activity.
Chain of PIK3CG (human) (P48736 whole entry, looked up): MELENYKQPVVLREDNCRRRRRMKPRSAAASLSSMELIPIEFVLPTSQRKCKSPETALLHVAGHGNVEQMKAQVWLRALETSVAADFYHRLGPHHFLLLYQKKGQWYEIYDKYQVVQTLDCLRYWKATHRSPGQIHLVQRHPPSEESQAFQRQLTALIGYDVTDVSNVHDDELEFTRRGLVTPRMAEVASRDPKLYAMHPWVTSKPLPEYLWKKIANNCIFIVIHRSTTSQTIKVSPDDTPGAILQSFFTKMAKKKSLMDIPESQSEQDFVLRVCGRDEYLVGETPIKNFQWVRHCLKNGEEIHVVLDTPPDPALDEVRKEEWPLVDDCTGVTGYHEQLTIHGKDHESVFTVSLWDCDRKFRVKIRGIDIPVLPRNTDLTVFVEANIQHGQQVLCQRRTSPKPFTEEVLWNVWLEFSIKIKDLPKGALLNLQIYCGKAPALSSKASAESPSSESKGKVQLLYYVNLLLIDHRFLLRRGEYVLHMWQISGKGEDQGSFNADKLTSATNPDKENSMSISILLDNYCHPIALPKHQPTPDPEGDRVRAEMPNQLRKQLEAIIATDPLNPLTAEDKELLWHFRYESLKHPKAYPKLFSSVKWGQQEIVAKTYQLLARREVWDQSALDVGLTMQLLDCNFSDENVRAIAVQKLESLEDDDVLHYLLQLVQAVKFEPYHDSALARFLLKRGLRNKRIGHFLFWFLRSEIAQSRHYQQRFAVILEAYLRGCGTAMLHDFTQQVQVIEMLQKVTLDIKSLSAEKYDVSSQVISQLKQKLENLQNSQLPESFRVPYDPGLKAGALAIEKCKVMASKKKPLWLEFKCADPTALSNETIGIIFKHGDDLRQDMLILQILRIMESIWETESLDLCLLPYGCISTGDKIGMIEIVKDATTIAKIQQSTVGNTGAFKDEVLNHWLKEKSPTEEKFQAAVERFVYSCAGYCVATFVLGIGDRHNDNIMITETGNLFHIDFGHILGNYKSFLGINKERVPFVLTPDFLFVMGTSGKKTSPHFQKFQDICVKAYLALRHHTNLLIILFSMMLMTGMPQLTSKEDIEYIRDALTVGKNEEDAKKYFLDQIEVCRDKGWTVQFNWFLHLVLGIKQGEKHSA
Conditions: not given
What is called pIC50 is the IC50 on a negative log10 scale, so that one unit is a factor of ten. Read a high pIC50 as a low IC50. In the case of `Cc1cc(NCc2ccccc2)c2nc(N3CCOCC3)cc(=O)n2c1`, the pIC50 was < 5.00.

In turn, `COc1cc2sc(C(=O)Nc3nnn[nH]3)c(OC3C[C@@H](C)C[C@@H](C)C3)c2cc1OC` (stereo not given in full) showed a pIC50 of 7.49.

With `CCCn1c(C(=O)Nc2nnn[nH]2)c(-c2ccccc2)c2cc(OC)c(OC)cc21`, the pIC50 was 5.38.

`CCn1c(C(=O)Nc2nnn[nH]2)c(-c2ccccc2)c2cc(OC)c(OC)cc21` gave a pIC50 of 5.18.

As for `COc1cc2sc(C(=O)Nc3nnn[nH]3)c(OCC3(C)COC3)c2cc1OC`, the pIC50 is 6.35.

For the compound `COc1ccc(OC)c(Nc2nc3ccccc3nc2NS(=O)(=O)c2cn(C)cn2)c1`, the pIC50 is 7.10.

Take `COc1cc2c(O[C@H]3C[C@@H](C)CC(C)(C)C3)c(C(=O)Nc3nn[nH]n3)sc2cc1C`: the pIC50 was 8.05.

Turning to `Cn1ncc2c(Nc3ccc(C(N)=O)cc3)nc(Nc3ccc(NC(=O)Nc4cccnc4)cc3)nc21`, the pIC50 is 7.17.

`COc1ccc(OC)c(Nc2nc3ccccc3nc2NS(=O)(=O)c2cccnc2)c1` showed a pIC50 of 7.25.

In turn, `Oc1cccc(-c2nc(N3CCOCC3)c3[nH]cc(C4CCN(Cc5ccc(Cl)nc5)CC4)c3n2)c1` showed a pIC50 of 5.84.

Regarding `COc1cc2sc(C(=O)Nc3nn[nH]n3)c(O[C@H]3C[C@H](C)C[C@H](C)C3)c2cc1OC`, the pIC50 is 6.99.

As for `COc1cc2sc(C(=O)Nc3nnn[nH]3)c(OC3CCCC[C@H]3C)c2cc1OC` (stereo not given in full), the pIC50 is 7.00.

Regarding `COc1cc(Nc2nc3ccccc3nc2NS(=O)(=O)c2ccc(CN(C)C)cc2)cc(OC)c1`, the pIC50 was 7.57.

The compound `Cc1cc(-c2sc(NC(=O)NCC(=O)N(C)C)nc2C)nc([S+](C)[O-])n1` (stereo not given) showed a pIC50 of 7.80.

`COc1cc2sc(C(=O)Nc3nnn[nH]3)c(OCC3CCCCCC3)c2cc1OC`: the pIC50 is 7.44.

`COc1ccc(OC)c(Nc2nc3ccccc3nc2NS(=O)(=O)c2cccc(C#N)c2)c1` showed a pIC50 of 6.37.

The compound `COc1ccc(OC)c(Nc2nc3ccccc3nc2NS(=O)(=O)c2ccc3c(c2)sc(=O)n3C)c1` gave a pIC50 of 6.62.

For the compound `COc1ccc(-c2ccc3nc(N)cn3n2)cc1OC`, the pIC50 is > 6.70.

Compound `O=C1NC(=S)S/C1=C\c1ccc2ncnc(N3CCC(F)CC3)c2n1` showed a pIC50 of 8.70.

`CC(=O)Nc1nc(C)c(-c2csc(Nc3cccc(-c4nnn[nH]4)c3)n2)s1` gave a pIC50 of 8.05.

In the case of `COc1cc(Nc2nc3ccccc3nc2NS(=O)(=O)c2cccc(C(=O)NCCCN(C)C)c2)cc(OC)c1`, the pIC50 was 7.52.

Consider `CC(C)(C)NS(=O)(=O)c1cncc(-c2ccc3nc(N)cn3n2)c1`, for which the pIC50 is > 6.70.

As for `Cc1nc(NC(=O)NCCC(=O)OC(C)(C)C)sc1-c1ccncc1`, the pIC50 is 7.30.

As for `COc1ccc(OC)c(Nc2nc3ncccc3nc2NS(=O)(=O)c2ccccc2)c1`, the pIC50 was 7.14.

`COc1cc2c(O[C@@H]3CCC[C@@H](C)C3)c(C(=O)Nc3nn[nH]n3)sc2cc1C` showed a pIC50 of 7.62.

Take `OCc1cccc(-c2nc(N3CCOCC3)c3cnn(C4CCNCC4)c3n2)c1`: the pIC50 was 6.29.

`O=C1NC(=O)/C(=C/c2ccc3ncn(-c4ccc5c(c4)CCN5S(=O)(=O)CCCN4CCOCC4)c3n2)S1` had a pIC50 of 7.70.

Consider `O=C1NC(=O)/C(=C/c2ccc(-c3cc(F)cc(F)c3O)o2)S1`, for which the pIC50 was 7.54.

In general, pKd refers to −log10 of the Kd, conventionally taken in molar units. A low value points to a large Kd. The compound `CC1(C)CCN(C(=O)c2ccc(NC(=O)Nc3ccc(-c4nc(O[C@H]5CCOC5)nc(N5CCOCC5)n4)cc3)cc2)CC1` gave a pIC50 of 8.14 and a pKd of 8.19.

With `COC[C@H]1OC(=O)c2coc3c2[C@@]1(C)C1=C(C3=O)[C@@H]2CCC(=O)[C@@]2(C)C[C@H]1O`, the pIC50 is 7.59.

One may read the pKi as the Ki on a negative log10 scale, so that one unit is a factor of ten. The low end stands for a high Ki, the high end for a low Ki. In the case of `CC(C)n1nnc(CCNC(=O)Nc2cn3cc(-c4cncc(F)c4)ccc3n2)n1`, the pKi is 6.77.

Consider `CCN(CC)C(C)=C1C(=O)O[C@H](COC)[C@@]2(C)C1=C(O)C(=O)C1=C2[C@H](OC(C)=O)C[C@]2(C)C(=O)CC[C@@H]12`, for which the pIC50 is 7.10.

Regarding `Cc1cc(NC(=O)CCNC(=O)Nc2cn3cc(Br)ccc3n2)no1`, the pKi is 5.30.

As for `Cc1[nH]c2ccc(Br)cc2c1C=C1Oc2cc(O)cc(O)c2C1=O`, the negative logarithm of the IC50 (pIC50) was 5.65.

Compound `CC(C)n1nnc(CCNC(=O)Nc2cn3cc(-c4cnc5ccccc5c4)ccc3n2)n1` had a pKi of 6.24.

Compound `CC(=O)Nc1nc(C)c(-c2csc(NCCC(N)=O)n2)s1` gave a pIC50 of 7.19.

The same test, now with this note: concentration not given here.
A word on the inhibition: it is the share of the control response that was lost under treatment. Turning to `O=C1NC(=O)/C(=C/c2ccc(-c3ccc4ccccc4n3)o2)S1`, the inhibition amounted to 13%.

Another test addresses PIK3CA (human) (UniProt P42336). Description: Assessment of PIK3CA Kinase Activity.
Conditions: not given
Regarding `O=C(Nc1cccc(-c2cc(N3CCOCC3)nc(-c3cccc(CO)c3)n2)c1)C1CCNCC1`, the pIC50 is 7.00.

The compound `CCOC(=O)N1CCC(n2ncc3c(N4CCO[C@@H](C)C4)nc(-c4ccc(NC(=O)NCCF)cc4)nc32)CC1` showed a pIC50 of 6.28.

`Cn1c(=NC#N)n(-c2ccc(C(C)(C)C#N)nc2)c2c3cc(-c4ccnc(N5CCOCC5)c4Cl)ccc3ncc21`: the pIC50 is 6.00 to 8.00.

For `O=C(Nc1ccc(-c2cc(-n3c(C(F)F)nc4ccccc43)nc(N3CCOCC3)n2)cc1)[C@@H]1CCCCN1`, the pIC50 was 5.64.

In turn, `NCc1ccc(NC(=O)c2cccc(-c3cc(N4CCOCC4)nc(-c4cccc(CO)c4)n3)c2)cc1` had a pIC50 of 7.00.

`CCOC1CCN(c2ncnc(CC)c2C#Cc2ccc(N)nc2)CC1` showed a pIC50 of 7.11.

The compound `NCCC1CCN(c2nc(N3CCOCC3)cc(-n3c(C(F)F)nc4ccccc43)n2)CC1` gave a pIC50 of 6.70.

With `CCNC(=O)Nc1ccc(-c2nc(N3CCO[C@@H](C)C3)c3cnn(C4CCN(C(=O)OCC)CC4)c3n2)cc1`, the negative-log IC50 (pIC50) is 6.26.

Consider `NCC(=O)N1CCC(c2cc(N3CCOCC3)nc(-n3c(C(F)F)nc4ccccc43)n2)CC1`, for which the pIC50 is 6.52.

In turn, `Cc1nc(N)nc(-c2c(Nc3ccn[nH]3)nc3ccc(CCC(O)CO)cn23)n1` (stereo not given) showed a pIC50 of 6.77.

A further test shares this target. Description: Enzyme Assay.
Conditions: not given
As for `CN(C)CCCNC(=O)c1cn2cc(-c3cccnc3)nc(N3CCOCC3)c2n1`, the pIC50 was 6.53.

For the compound `Cc1nc(-c2cnc3c(C)cc(-c4cncc(NS(=O)(=O)c5ccccc5)c4)cn23)no1`, the pKd is 7.33.

Take `COCCN1CC(C)(C)Oc2nc(N3CC4CCC(C3)O4)nc(-c3ccc(NC(=O)Nc4ccon4)cc3)c2C1=O`: the pIC50 was < 5.00.

As to `CCN1CC(C)(C)Oc2nc(N3CC4CCC(C3)O4)nc(-c3ccc(NC(=O)N[C@@H](C)CO)c(F)c3)c2C1=O`, the pIC50 was < 5.00.

For the compound `CN(C)C(=O)c1ccc(Nc2nc(-c3ccc(N)nc3)nc(N3CCOCC3)n2)cc1`, the pIC50 is > 6.00.

Turning to `CCN1CC(C)(C)Oc2nc(N3CC4CCC(C3)O4)nc(-c3ccc(NC(=O)Nc4ccn(C)n4)cc3)c2C1=O`, the negative logarithm of the IC50 (pIC50) was 5.38.

As for `C=CC(=O)N1CCC[C@@H](n2nc(-c3ccc(Oc4ccccc4)cc3)c3c(N)ncnc32)C1`, the pIC50 was < 5.00.

Take `CCN1CC(C)(C)Oc2nc(N3CCOC[C@@H]3C)nc(-c3ccc(NC(=O)Nc4ccc(C)cn4)cc3)c2C1=O`: the pIC50 was 5.84.

Compound `COc1ncc(-c2cn3cc(CN4CCN(S(C)(=O)=O)CC4)nc3c(N3CCOCC3)n2)cn1` showed a pIC50 of 6.00 to 7.00.

In turn, `CN1CCN(c2cnc3ccc(-c4cnc(N)c(S(=O)(=O)N(C)C)c4)cc3n2)CC1` showed a pIC50 of 7.80.

In the case of `CCN1CC(C)(C)Oc2nc(N3CC4CCC(C3)O4)nc(-c3ccc(NC(=O)Nc4cnccn4)cc3)c2C1=O`, the pIC50 was < 5.00.

As for `CCN1CC(C)(C)Oc2nc(N3CC4CCC(C3)O4)nc(-c3ccc(NC(=O)Nc4ccnc(N5CCC(F)(F)CC5)c4)c(F)c3)c2C1=O`, the pIC50 is < 5.00.

With `O=C(c1cn2cc(-c3cccc4[nH]ncc34)nc(N3CCOCC3)c2n1)N1CCNCC1`, the pIC50 is 6.74.

In turn, `COc1ncc(-c2ccc3nnc(C#CC(C)(C)O)n3n2)cc1NS(=O)(=O)c1ccc(F)cc1` gave a pIC50 of 7.49.

`COc1cccc(-c2cn3c(I)c(C)nc3c(N3CCOCC3)n2)c1`: the pIC50 is 6.00 to 7.00.

Take `CN1CC(C)(C)Oc2nc(N3CC4CCC(C3)O4)nc(-c3ccc(NC(=O)Nc4ccc(N5CC6CCC(C5)O6)nc4)c(F)c3)c2C1=O`: the pIC50 was < 5.00.

As for `COCCCNC(=O)c1cn2cc(-c3cccnc3)nc(N3CCOCC3)c2n1`, the pIC50 was 6.21.

In turn, `C[C@@H]1COC[C@H](C)N1c1nc(Oc2ccc(C(=O)N(C)C)cc2F)nc(-c2cnc(N)s2)n1` showed a pIC50 of 6.00.

With `C[C@@H]1COC[C@@H](C)N1c1nc(Oc2ccc(C(=O)N(C)C)cc2)nc(-c2cnc(N)s2)n1`, the pIC50 was 5.22.

Consider `Cc1nc(-c2cnc3c(F)cc(-c4cncc(NS(=O)(=O)c5ccccc5)c4)cn23)no1`, for which the pKd was 8.11.

In the case of `Cc1nc(-c2cnc3c(Cl)cc(-c4cncc(NS(=O)(=O)c5ccccc5)c4)cn23)no1`, the pKd was 6.37.

The compound `CS(=O)(=O)N1CC2CCC(C1)N2c1cn2cc(-c3cnc(N)nc3)nc(N3CCOCC3)c2n1` gave a pIC50 of 6.97.

In the case of `CS(=O)(=O)N1CCN(c2cnc3c(N4CCOCC4)nc(-c4cccc(O)c4)cn23)CC1`, the pIC50 is 6.00 to 7.00.

In the case of `CCN1CC(C)(C)Oc2nc(N3[C@@H]4CC[C@H]3COC4)nc(-c3ccc(NC(=O)Nc4ccncc4F)cc3)c2C1=O`, the pIC50 is 5.25.

Turning to `COc1cc(-c2cncc(NS(=O)(=O)c3ccccc3)c2)cn2c(-c3noc(C)n3)cnc12`, the pKd was 5.91.

For another test the target is unchanged. Kind of test: Inhibition of PIK3CA Kinase Activity.
Conditions: not given
The compound `Cn1ncc2c(Nc3ccc(C(N)=O)cc3)nc(Nc3ccc(NC(=O)Nc4cccnc4)cc3)nc21` had a pIC50 of 9.00.

The compound `Oc1cccc(-c2nc(N3CCOCC3)c3[nH]cc(C4CCN(Cc5ccc(Cl)nc5)CC4)c3n2)c1` had a pIC50 of 6.40.

`O=C1NC(=O)/C(=C/c2ccc(-c3cc(F)cc(F)c3O)o2)S1` had a pIC50 of 6.47.

`Cc1[nH]c2ccc(Br)cc2c1C=C1Oc2cc(O)cc(O)c2C1=O`: the pIC50 is 6.75.

Another test has as its target ROCK2 (human) (UniProt O75116). Kind of test: Inhibition of ROCK2 Kinase Activity.
Conditions: not given
Turning to `NCC1(c2ccc(OC(F)(F)F)cc2)CCN(c2ncnc3[nH]ccc23)CC1`, the pIC50 is > 7.52.

In turn, `C[C@@H](N)c1ccc(C(=O)Nc2ccncc2)cc1` had a pIC50 of 6.41.

In turn, `Nc1nc(Nc2ccc(Oc3ccc4cn[nH]c4c3)c(F)c2)cc(-c2ccncc2)n1` showed a pIC50 of 7.00.

`CSCc1ccc(CN2CCCC(Nc3ccc4[nH]ncc4c3)C2)cc1` (stereo not given): the pIC50 is 5.88.

With `COc1cccc(CNC(=O)Nc2nc(-c3ccncc3)cs2)c1`, the pIC50 is 8.00.

`O=C(NCc1ccc(F)cc1)Nc1nc(-c2ccncc2)cs1` showed a pIC50 of 7.72.

Regarding `NCC1(c2ccc(Cl)cc2)CCN(c2ncnc3[nH]ccc23)CC1`, the pIC50 is > 7.00.

On to `C[C@@H](NC(=O)Nc1nc(-c2ccncc2)cs1)c1ccccc1`, for which the pIC50 was 7.92.
